From ChEMBL document CHEMBL4118105, “High-Affinity Peptidomimetic Inhibitors of the DCN1-UBC12 Protein-Protein Interaction” (J Med Chem, 2018)
Non-standard residues stand in square brackets, D forms with d. Residues, ends and D or L forms follow the SMILES beside them. *: point of attachment. 2Nal = N[C@@H](Cc1ccc2ccccc2c1)C(=O)O; Cyclopropanecarbonyl = O=C(C1CC1)*; NHPhenethyl = c1ccc(CCN*)cc1; NHBn = c1ccc(CN*)cc1; Propionyl = CCC(=O)*; Butyryl = CCCC(=O)*; NHPh = c1ccc(N*)cc1; Moc = COC(=O)*; For = O=C*

target: DCN1-like protein 1 (Homo sapiens, UniProt Q96GG9); assay: Displacement of (S)-N1-((19S,22S)-26-Amino-19-carbamoyl-1-(3',6'-dihydroxy-3-oxo-3H-spiro[isobenzofuran-1,9'-xanthen]-5-yl)-1,13,21-trioxo-5,8,11-trioxa-2,14,20-triazahexacosan-22-yl)-2-((2S,5S,8S,11S,14S,17S,20S,23S,26S)-2-(3-amino-3-oxopropyl)-5,20-bis(4-aminobutyl)-14-benzyl-23-((S)-sec-butyl)-11-(hydroxymethyl)-8,17-diisobutyl-26-(naphthalen-2-ylmethyl)-4,7,10,13,16,19,22,25,28-nonaoxo-3,6,9,12,15,18,21,24,27-nonaazanonacosanamido)pentanediamide from recombinant N-terminal His6-tagged human DCN1 (58 to 259 residues) expressed in Escherichia coli Rosetta2 cells after 30 mins by fluorescence polarization assay
Sequence (Q96GG9 whole entry, the tested form may be a part): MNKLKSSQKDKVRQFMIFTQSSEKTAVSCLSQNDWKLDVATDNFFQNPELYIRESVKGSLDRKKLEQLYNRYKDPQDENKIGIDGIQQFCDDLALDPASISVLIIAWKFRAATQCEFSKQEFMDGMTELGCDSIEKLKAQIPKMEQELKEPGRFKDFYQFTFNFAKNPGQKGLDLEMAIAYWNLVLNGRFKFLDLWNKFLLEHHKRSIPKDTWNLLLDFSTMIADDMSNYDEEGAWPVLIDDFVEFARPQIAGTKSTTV

Ki [nM]	IC50 [nM]	Structure (SMILES)
88.6		CCC(=O)N[C@@H](Cc1nc2cc(Cl)ccc2s1)C(=O)N[C@H](C(=O)N[C@@H](CCCCN)C(=O)NC(c1ccccc1)c1ccccc1)C1CCCC1
140		CCC(=O)N[C@@H](Cc1ccc2ccccc2c1)C(=O)N[C@H](C(=O)N[C@@H](CCCCN)C(=O)N[C@H]1CCCc2ccccc21)[C@@H](C)CC
	> 50000	CC[C@H](C)[C@H](NC(=O)[C@H](Cc1ccc2ccccc2c1)NC(=O)OC)C(=O)N[C@@H](CCCCN)C(=O)N[C@@H](CC(C)C)C(N)=O (Moc-[2Nal]IKL-NH2)
160		CCC(=O)N[C@@H](Cc1ccc2ccccc2c1)C(=O)N[C@H](C(=O)N[C@@H](CCCCN)C(=O)N[C@@H]1CCc2ccccc21)[C@@H](C)CC
97.3	613	CCC(=O)N[C@@H](Cc1ccc2ccccc2c1)C(=O)N[C@H](C(=O)N[C@@H](CCCCN)C(=O)NC(c1ccccc1)c1ccccc1)C1CCCCC1
174		CCC(=O)N[C@@H](Cc1ccc2ccccc2c1)C(=O)N[C@@H](Cc1cccs1)C(=O)N[C@@H](CCCCN)C(=O)NC(c1ccccc1)c1ccccc1
	> 100000	CC[C@H](C)[C@H](NC(=O)[C@@H](N)Cc1ccc2ccccc2c1)C(=O)N[C@@H](CCCCN)C(=O)N[C@@H](CC(C)C)C(N)=O (H-[2Nal]IKL-NH2)
810		CCC(=O)N[C@@H](Cc1ccc2ccccc2c1)C(=O)N[C@H](C(=O)N[C@@H](CCCCN)C(=O)NCc1ccccc1)[C@@H](C)CC (Propionyl-[2Nal]-Ile-Lys-NHBn)
2500	10800	CCC(=O)N[C@@H](Cc1ccc2ccccc2c1)C(=O)N[C@H](C(=O)N[C@@H](CCCCN)C(=O)NCCc1ccccc1)[C@@H](C)CC (Propionyl-[2Nal]-Ile-Lys-NHPhenethyl)
380		CCC(=O)N[C@@H](Cc1ccc2ccccc2c1)C(=O)N[C@H](C(=O)N[C@@H](CCCCN)C(=O)N[C@H]1CCc2ccccc21)[C@@H](C)CC
8000	37000	CCCC(=O)N[C@@H](Cc1ccc2ccccc2c1)C(=O)N[C@H](C(=O)N[C@@H](CCCCN)C(=O)N[C@@H](CC(C)C)C(N)=O)[C@@H](C)CC (Butyryl-[2Nal]IKL-NH2)
7500	34900	CCC(=O)N[C@@H](Cc1ccc2ccccc2c1)C(=O)N[C@H](C(=O)N[C@@H](CCCCN)C(=O)Nc1ccccc1)[C@@H](C)CC (Propionyl-[2Nal]-Ile-Lys-NHPh)
224		CCC(=O)N[C@@H](Cc1nc2cc(F)ccc2s1)C(=O)N[C@H](C(=O)N[C@@H](CCCCN)C(=O)NC(c1ccccc1)c1ccccc1)C1CCCC1
84	550	CCC(=O)N[C@@H](Cc1ccc2ccccc2c1)C(=O)N[C@H](C(=O)N[C@@H](CCCCN)C(=O)N[C@@H]1CCCc2ccccc21)[C@@H](C)CC
130000	599000	CC[C@H](C)[C@H](NC(=O)[C@H](CCSC)NC(C)=O)C(=O)N[C@@H](CCCCN)C(=O)N[C@@H](CC(C)C)C(N)=O (Ac-MIKL-NH2)
3600	16800	CC[C@H](C)[C@H](NC(=O)[C@H](Cc1ccc2ccccc2c1)NC(C)=O)C(=O)N[C@@H](CCCCN)C(=O)N[C@@H](CC(C)C)C(N)=O (Ac-[2Nal]IKL-NH2)
27500	128000	CC[C@H](C)[C@H](NC(=O)[C@H](Cc1ccc2ccccc2c1)NC=O)C(=O)N[C@@H](CCCCN)C(=O)N[C@@H](CC(C)C)C(N)=O (For-[2Nal]IKL-NH2)
44.3	368	CCC(=O)N[C@@H](Cc1ccc2ccccc2c1)C(=O)N[C@@H](CC1CCCCC1)C(=O)N[C@@H](CCCCN)C(=O)NC(c1ccccc1)c1ccccc1
672	3270	CCC(=O)N[C@@H](Cc1ccc2ccccc2c1)C(=O)N[C@@H](CC(F)(F)F)C(=O)N[C@@H](CCCCN)C(=O)NC(c1ccccc1)c1ccccc1
5400	25100	CC[C@H](C)[C@H](NC(=O)[C@H](Cc1ccc2ccccc2c1)NC(=O)C1CC1)C(=O)N[C@@H](CCCCN)C(=O)N[C@@H](CC(C)C)C(N)=O (Cyclopropanecarbonyl-[2Nal]IKL-NH2)
